In US20080171716A1, “NUCLEIC ACID MODULATION OF TOLL-LIKE RECEPTOR-MEDIATED IMMUNE STIMULATION” (Protiva Biotherapeutics, Inc., priority 2006, published 2008):
Blank lines part the entries; values can stand above or below the substance they belong to.

Assays:
TLR7 [1] = target: T1, TLR7 (Mus musculus, UniProt P58681); test: In vivo inhibition of loxoribine-mediated cytokine induction in mice; design: from tissue; host or cells: whole animal: female Balb/C mice, plasma cytokines; species or system Balb/C mice; conditions: 100 μg formulated RNA IV 2 h prior to 1 mg Lox
T1 sequence (P58681 27-1050): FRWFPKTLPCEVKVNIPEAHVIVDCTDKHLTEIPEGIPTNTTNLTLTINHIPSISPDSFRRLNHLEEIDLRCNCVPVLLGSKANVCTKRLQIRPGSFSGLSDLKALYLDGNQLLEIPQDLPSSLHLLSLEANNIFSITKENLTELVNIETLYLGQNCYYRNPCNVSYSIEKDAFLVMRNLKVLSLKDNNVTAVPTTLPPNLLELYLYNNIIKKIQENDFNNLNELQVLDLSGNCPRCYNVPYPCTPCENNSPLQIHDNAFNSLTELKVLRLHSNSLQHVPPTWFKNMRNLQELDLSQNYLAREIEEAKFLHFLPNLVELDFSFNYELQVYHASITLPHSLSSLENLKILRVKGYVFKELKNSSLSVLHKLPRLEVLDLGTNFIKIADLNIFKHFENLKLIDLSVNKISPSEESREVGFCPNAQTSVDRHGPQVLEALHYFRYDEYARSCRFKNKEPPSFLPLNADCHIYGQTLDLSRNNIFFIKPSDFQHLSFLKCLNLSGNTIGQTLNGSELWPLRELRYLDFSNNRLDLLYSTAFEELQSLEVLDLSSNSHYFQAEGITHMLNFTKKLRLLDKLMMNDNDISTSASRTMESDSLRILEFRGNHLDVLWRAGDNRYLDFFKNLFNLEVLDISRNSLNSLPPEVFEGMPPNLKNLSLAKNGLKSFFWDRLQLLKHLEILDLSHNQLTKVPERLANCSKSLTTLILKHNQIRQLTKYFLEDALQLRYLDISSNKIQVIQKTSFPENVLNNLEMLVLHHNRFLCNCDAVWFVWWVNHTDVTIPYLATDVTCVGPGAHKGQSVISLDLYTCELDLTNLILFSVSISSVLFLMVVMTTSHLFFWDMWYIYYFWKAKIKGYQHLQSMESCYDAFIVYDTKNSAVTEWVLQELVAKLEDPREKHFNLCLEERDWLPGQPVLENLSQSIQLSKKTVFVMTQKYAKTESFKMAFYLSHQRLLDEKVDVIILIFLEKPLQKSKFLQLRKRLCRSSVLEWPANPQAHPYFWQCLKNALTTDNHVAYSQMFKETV
Description: (§1) Cytokine ELISA. All cytokines were quantified using sandwich ELISA kits according to the manufacturer's instructions. These were mouse and human IFN-α (PBL Biomedical; Piscataway, N.J.) and IL-6 (eBioscience; San Diego, Calif.).
(§2) In Vivo Cytokine Induction. Animal studies were performed at Protiva Biotherapeutics in accordance with Canadian Council on Animal Care guidelines and following protocol approval by the local Animal Care and Use Committee. Female Balb/C mice were subjected to a two-week quarantine and acclimation period prior to use at six to eight-weeks of age. RNA formulations were administered by standard injection in the lateral tail vein in 0.2 ml PBS. Six hours after injection, blood was collected by cardiac puncture and processed as plasma for cytokine analysis. In experiments studying inhibition of cytokine induction by loxoribine, formulated RNA (100 μg) was administered IV 2 h prior to IV administration of 1 mg loxoribine in PBS. Blood was collected by cardiac puncture 2 h after administration of loxoribine and processed as plasma for cytokine analysis.

TLR9 = target: T2, TLR9 (Mus musculus, UniProt Q9EQU3); test: CpG ODN (TLR9 agonist)-induced IFN-α in murine Flt3L-derived dendritic cells; assay type: cell-based; conditions: murine Flt3L cultures; phosphodiester backbone; formulated in lipid nanoparticles
T2 construct: endogenous in cells; host or cells: Flt3L-derived dendritic cells cultured from bone marrow of female Balb/C mice
T2 sequence (Q9EQU3 26-1032): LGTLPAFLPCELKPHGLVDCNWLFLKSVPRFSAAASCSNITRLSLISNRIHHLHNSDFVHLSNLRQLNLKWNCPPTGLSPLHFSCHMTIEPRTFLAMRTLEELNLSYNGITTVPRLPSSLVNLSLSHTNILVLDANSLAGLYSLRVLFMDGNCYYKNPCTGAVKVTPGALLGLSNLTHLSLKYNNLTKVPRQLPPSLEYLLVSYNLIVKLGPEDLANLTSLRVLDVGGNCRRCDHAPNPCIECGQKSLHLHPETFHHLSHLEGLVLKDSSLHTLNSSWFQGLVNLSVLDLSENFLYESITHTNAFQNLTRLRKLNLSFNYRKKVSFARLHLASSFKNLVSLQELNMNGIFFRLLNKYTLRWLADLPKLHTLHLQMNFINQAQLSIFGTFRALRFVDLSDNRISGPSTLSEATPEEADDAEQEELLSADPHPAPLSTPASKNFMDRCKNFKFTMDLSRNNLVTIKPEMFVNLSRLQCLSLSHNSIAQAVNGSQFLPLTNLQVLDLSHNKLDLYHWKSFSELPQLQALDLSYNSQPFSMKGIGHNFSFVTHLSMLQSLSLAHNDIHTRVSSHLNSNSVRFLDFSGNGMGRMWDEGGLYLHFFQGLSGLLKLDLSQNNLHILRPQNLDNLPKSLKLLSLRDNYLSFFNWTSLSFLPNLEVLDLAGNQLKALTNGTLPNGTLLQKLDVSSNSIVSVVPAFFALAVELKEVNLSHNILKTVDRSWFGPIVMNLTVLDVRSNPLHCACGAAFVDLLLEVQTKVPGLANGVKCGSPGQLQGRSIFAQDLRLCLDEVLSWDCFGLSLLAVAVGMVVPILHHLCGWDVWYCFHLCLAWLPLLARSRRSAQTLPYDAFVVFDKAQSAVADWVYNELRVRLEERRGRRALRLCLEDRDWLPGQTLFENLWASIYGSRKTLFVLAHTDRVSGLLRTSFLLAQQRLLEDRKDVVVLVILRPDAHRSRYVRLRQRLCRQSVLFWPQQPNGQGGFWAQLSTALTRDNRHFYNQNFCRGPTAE
Description: (§3) Lipid Encapsulation of RNA and ODN. RNA or ODN were encapsulated in liposomes by a process of spontaneous vesicle formation as described in Judge et al., supra, and Jeffs et al., Pharm. Res., 22:362-372 (2005).
Flt3L-derived dendritic cells (DC) were generated as described in Gilliet et al., J. Exp. Med., 195:953-958 (2002), using 100 ng/ml murine Flt3-ligand (Peprotech) supplemented media. Femurs and tibiae of female Balb/C mice were isolated and rinsed in sterile PBS. The ends of bones were cut and marrow harvested in complete media (RPMI 1640, 10% heat inactivated FBS, 1% penicillin/streptomycin, 2 mM L-glutamine, 1 mM sodium pyruvate, 25 mM HEPES, 50 μM 2-mercaptoethanol). Bone marrow cells were passed through a 70 μm strainer and centrifuged at 1000 rpm for 7 min. and resuspended in complete media supplemented with 100 ng/ml murine Flt3L to 2×10^6 cells/ml. 2 ml of cells were seeded in 6-well plates and 1 ml fresh media was added every two to three days. On day 9 of culture, non-adherent cells were washed in complete media and plated into 96-well plates at concentrations ranging from 0.5 to 2.5×10^5 cells/well.
(§4) Loxoribine (InvivoGen; San Diego, Calif.), polyIC (Sigma-Aldrich; St. Louis, Mo.), and formulated nucleic acids were diluted in PBS and added to either human PBMC or Flt3L DC cultures. Cells were incubated 24 h at 37° C. before supernatants were assayed for cytokines by ELISA.
as §1

TLR7 [2] = target: T1, TLR7; test: In vivo cytokine induction by formulated ssRNA in mice; design: from tissue; host or cells: whole animal: female Balb/C mice, plasma cytokines; species or system Balb/C mice; conditions: IV, plasma 6 h after administration
Description: as §1, §2

TLR7/8 = test: Cytokine induction in human PBMCs by immunostimulatory RNA, alone or co-formulated with modified ssRNA in the same SNALP/lipid particle; assay type: cell-based; conditions: human PBMC cultures; lipid-formulated RNA alone; doses 0.1 to 3 μg/ml
Description: All RNA molecules used in this study were heated at 90° C. for 3 min. and then placed at 37° C. for 60 min. Non-denaturing PAGE analysis on a 20% polyacrylamide gel was performed to confirm that ssRNA molecules were intact and that no duplexes had formed upon heating. The RNA molecules were encapsulated in a SNALP formulation comprising PEG-cDMA:DLinDMA:cholesterol:DSPC in a 2:40:48:10 mol % ratio (2:40 SNALP), prepared using a syringe press process.
Fresh human peripheral blood mononuclear cells (PBMCs) were isolated and seeded at about 3×10^5 cells/well in a total volume of 180 μl. Next, 20 μl of the appropriate SNALP diluted in PBS or 10 μl of naked TLR agonist were added to the PBMCs. For time course experiments, PBMCs were pretreated with UmodS ssRNA or a control and the appropriate naked TLR agonist was added at 0, 0.5, or 2 hours after pretreatment. When the SNALP and naked TLR agonist were added separately, the SNALP was added first followed by the naked TLR agonist. At t=24 hr., the cell supernatant was harvested and IFN-α and/or IL-6 levels were determined using ELISA.
The ssRNA molecules used in this study were heated at 90° C. for 3 min. and then placed at 37° C. for 60 min to disrupt any potential secondary structure. Non-denaturing PAGE analysis on a 20% polyacrylamide gel was performed to confirm that ssRNA molecules were intact and that no duplexes had formed upon heating. siRNA duplexes were prepared by annealing equimolar concentrations of two deprotected and desalted ssRNA oligonucleotides using standard procedures. Formation of annealed siRNA duplexes was confirmed by non-denaturing PAGE analysis on a 20% polyacrylamide gel. The RNA molecules were encapsulated in a 2:40 SNALP formulation prepared using a syringe press process.
Fresh human peripheral blood mononuclear cells (PBMCs) were isolated and seeded at about 3×10^5 cells/well in a total volume of 180 μl. Next, 20 μl of the appropriate SNALP diluted in PBS were added to the PBMCs. At t=24 hr., the cell supernatant was harvested and IFN-α and/or IL-6 levels were determined using an enzyme-linked immunosorbent assay (ELISA). For example, IFN-α and IL-6 levels can be measured using a sandwich ELISA kit available from PBL Biomedical (Piscataway, N.J.) and eBioscience (San Diego, Calif.), respectively.
as §3
Cell Isolation and Culture. Human PBMCs were isolated from whole blood of healthy donors by a standard Ficoll-Hypaque density centrifugation. Blood was diluted 1:1 with PBS, layered onto Ficoll-Paque Plus, and centrifuged at 1600 RPM for 30 min. PBMCs were washed in PBS twice followed by resuspension in complete media (RPMI 1640, 10% heat inactivated FBS, 2 mM L-glutamine, and 1% penicillin/streptomycin). PBMCs were plated at 2.5×10^5 cells/well in 96 well plates for cytokine induction assays.
as §4, §1

Substance: GFP-S: native non-stimulatory ssRNA: GGCUACGUCCAGGAGCGCAUU (RNA, backbone not given here) [reference compound]
response to loxoribine (plasma IFN-α and IL-6) after pre-treatment (TLR7 [1]): robust response

immunostimulatory activity of the ODN alone (TLR9): highly immunostimulatory
Substance: ODN 1826

Substance: ODN 6295: CpG Type A ODN, phosphodiester: TAACGTTGAGGGGCAT (DNA, all phosphodiester, methylation of C not given here; formulated in lipid nanoparticles)
immunostimulatory activity of the ODN alone (TLR9): highly immunostimulatory

Substance: ODN M362: CpG Type C ODN, phosphodiester: TCGTCGTCGTTCGAACGACGTTGAT (DNA, all phosphodiester, methylation of C not given here; formulated in lipid nanoparticles)
immunostimulatory activity of the ODN alone (TLR9): highly immunostimulatory

Substance: βgal-AS: immunostimulatory ssRNA: AAAUCGCUGAUUUGUGUAGUU (chemistry not given here) [reference compound]
plasma IFN-α after administration of the formulated RNA alone (TLR7 [2]): significant elevations
plasma IL-6 after administration of the formulated RNA alone (TLR7 [2]): significant elevations
IFN-α production induced by the RNA alone (TLR7/8): induced high levels of IFN-α
